Measured values as given in PubChem BioAssay (NCI).
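Abbreviation: GI50, concentration required for 50% inhibition of growth. The concentration for full growth arrest is given as TGI.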

Tests used:
Experiment in all cases: NCI-60 cell line screen, 384-well format
[1] = test system: U251 glioblastoma
[2] = test system: EKVX NSCLC
[3] = test system: MCF7 breast
[4] = test system: KM12 colon
[5] = test system: SK-OV-3 ovarian
[6] = test system: NCI-H322M lung
[7] = test system: COLO 205 colon
[8] = test system: OVCAR-3 ovarian
[9] = test system: DU-145 prostate
[10] = test system: SNB-75 CNS
[11] = test system: NCI-H23 lung
[12] = test system: MDA-MB-468 breast
[13] = test system: NCI-H460 NSCLC
[14] = test system: BT-549 breast
[15] = test system: SK-MEL-2 melanoma
[16] = test system: SW-620 colon
[17] = test system: SK-MEL-28 melanoma
[18] = test system: SF-539 CNS
[19] = test system: HT29 colon
[20] = test system: UACC-62 melanoma
[21] = test system: IGROV1 ovarian
[22] = test system: UACC-257 melanoma
[23] = test system: HS 578T breast
[24] = test system: HOP-62 NSCLC
[25] = test system: M14 melanoma
[26] = test system: SK-MEL-5 melanoma
[27] = test system: MALME-3M melanoma
[28] = test system: NCI/ADR-RES ovarian
[29] = test system: CAKI-1 renal
[30] = test system: OVCAR-5 ovarian
[31] = test system: 786-0 renal
[32] = test system: SNB-19 CNS
[33] = test system: PC-3 prostate
[34] = test system: RPMI-8226 leukemia
[35] = test system: SF-268 CNS
[36] = test system: NCI-H226 lung
[37] = test system: HCT-15 colon
[38] = test system: A549 NSCLC
[39] = test system: MOLT-4 leukemia
[40] = test system: SR leukemia
[41] = test system: HOP-92 NSCLC
[42] = test system: TK-10 renal
[43] = test system: SF-295 CNS
[44] = test system: OVCAR-8 ovarian
[45] = test system: NCI-H522 lung
[46] = test system: HL-60(TB) leukemia
[47] = test system: T-47D breast
[48] = test system: MDA-MB-435 melanoma
[49] = test system: MDA-MB-231 breast
[50] = test system: CCRF-CEM leukemia
[51] = test system: ACHN renal
[52] = test system: OVCAR-4 ovarian
[53] = test system: RXF 393 renal
[54] = test system: SN12C renal

## NC(=S)N/N=C/c1ncccc1N
[1]
  GI50: 0.314 µM
  TGI: 0.855 µM
[2]
  GI50: 3.28 µM
  TGI: 18.3 µM
[3]
  GI50: 0.487 µM
  TGI: 10.8 µM
[4]
  GI50: 3.52 µM
  TGI: 24.8 µM
[5]
  GI50: 2.67 µM
  TGI: 7.61 µM
[6]
  GI50: 7.28 µM
  TGI: > 100 µM
[7]
  GI50: 0.879 µM
  TGI: 2.23 µM
[8]
  GI50: 0.532 µM
  TGI: 8.64 µM
[9]
  GI50: 0.584 µM
  TGI: 3.63 µM
[10]
  GI50: 0.344 µM
  TGI: 2.9 µM
[11]
  GI50: 0.257 µM
  TGI: 0.518 µM
[12]
  GI50: 1.41 µM
  TGI: 3.56 µM
[13]
  GI50: 0.413 µM
  TGI: 1.57 µM
[14]
  GI50: 0.675 µM
  TGI: 3.94 µM
[15]
  GI50: 0.45 µM
  TGI: 0.772 µM
[16]
  GI50: 0.697 µM
  TGI: 21.4 µM
[17]
  GI50: 2.67 µM
  TGI: 41.6 µM
[18]
  GI50: 0.212 µM
  TGI: 0.451 µM
[19]
  GI50: 2.21 µM
  TGI: 43.4 µM
[20]
  GI50: 0.249 µM
  TGI: 0.581 µM
[21]
  GI50: 0.816 µM
  TGI: 20.5 µM
[22]
  GI50: 3.17 µM
  TGI: 15 µM
[23]
  GI50: 0.654 µM
  TGI: > 100 µM
[24]
  GI50: 0.357 µM
  TGI: 1.41 µM
[25]
  GI50: 0.586 µM
  TGI: 1.87 µM
[26]
  GI50: 0.53 µM
  TGI: 1.96 µM
[27]
  GI50: 0.378 µM
  TGI: 0.933 µM
[28]
  GI50: 1.44 µM
  TGI: 3.04 µM
[29]
  GI50: 0.494 µM
  TGI: 15.8 µM
[30]
  GI50: 2.69 µM
  TGI: 8.73 µM
[31]
  GI50: 0.242 µM
  TGI: 0.54 µM
[32]
  GI50: 0.709 µM
  TGI: 4.14 µM
[33]
  GI50: 10.6 µM
  TGI: 28.2 µM
[34]
  GI50: 0.203 µM
  TGI: 0.373 µM
[35]
  GI50: 0.318 µM
  TGI: 0.789 µM
[36]
  GI50: 1.7 µM
  TGI: 3.45 µM
[37]
  GI50: 3.47 µM
  TGI: > 100 µM
[38]
  GI50: 1.45 µM
  TGI: > 100 µM
[39]
  GI50: 0.194 µM
  TGI: 0.342 µM
[40]
  GI50: 0.192 µM
  TGI: 0.337 µM
[41]
  GI50: 0.47 µM
  TGI: 21.8 µM
[42]
  GI50: 8.17 µM
  TGI: > 100 µM
[43]
  GI50: 1.1 µM
  TGI: 3.86 µM
[44]
  GI50: 0.241 µM
  TGI: 0.499 µM
[45]
  GI50: 0.561 µM
  TGI: 7.76 µM
[46]
  GI50: 0.233 µM
  TGI: 0.428 µM
[47]
  GI50: 1.33 µM
  TGI: 7.19 µM
[48]
  GI50: 7.8 µM
  TGI: > 100 µM
[49]
  GI50: 0.616 µM
  TGI: 11.9 µM
[50]
  GI50: 0.291 µM
  TGI: 0.622 µM
[51]
  GI50: 0.281 µM
  TGI: 0.585 µM
[52]
  GI50: 4.39 µM
  TGI: 9.35 µM
[53]
  GI50: 2.08 µM
  TGI: 23.6 µM
[54]
  GI50: 0.73 µM
  TGI: 3.14 µM
